Source: patent publication US20200148617A1, “GEMCABENE, PHARMACEUTICALLY ACCEPTABLE SALTS THEREOF, COMPOSITIONS THEREOF AND METHODS OF USE THEREFOR” (GEMPHIRE THERAPEUTICS INC., priority 2017, published 2020)

Legend:
[1] = 12-week placebo-controlled study of 600 mg QD in hypercholesterolemia patients on statins: safety and tolerability; type: in vivo; details: add-on to highest doses of background statins
Experimental: High-risk patients including some, but not all those with heterozygous familial hypercholesterolemia (HeFH) or atherosclerotic cardiovascular disease (ASCVD) on appropriate diet and stable statin therapy for at least 12 weeks and LDL-C ≥100 mg/dL (2.59 mmol/L) and triglycerides <500 mg/dL (5.65 mmol/L) were randomized into a 12-week, placebo-controlled, parallel-group, double-blind study to assess the efficacy of gemcabene calcium salt hydrate Crystal Form 1 (PSD90=52 μm) 600 mg (300-mg Tablet D×2) QD on LDL-C and other lipoproteins and hsCRP (high-sensitivity C-reactive protein). Safety and tolerability were also evaluated. The patients were stratified by high- or moderate-intensity statin therapy, with or without ezetimibe, with a target of 52 patients (26 patients on 600 mg gemcabene calcium salt hydrate Crystal Form 1 as administered by 2× Tablet D and 26 patients on placebo (“placebo”)) in each stratum. […] Mean baseline LDL-C for all patients was approximately 134 mg/dL (3.48 mmol/L) with most patients in the high-intensity statin stratum on atorvastatin and most patients in the moderate-intensity stratum on either simvastatin or atorvastatin.
33 of 54 patients (61.1%) in the Tablet D group and 24 of 51 patients (47.1%) in the placebo group who reported at least one AE during the study. The most prevalent AEs were those associated with infections. […]

[2] = system: patients with hypercholesterolemia on stable statins; assay: 12-week placebo-controlled study of 600 mg QD in hypercholesterolemia patients on stable moderate and high-intensity statins: atherogenic and inflammatory biomarkers; type: in vivo, human; details: add-on to background statins
Experimental: High-risk patients including some, but not all those with heterozygous familial hypercholesterolemia (HeFH) or atherosclerotic cardiovascular disease (ASCVD) on appropriate diet and stable statin therapy for at least 12 weeks and LDL-C ≥100 mg/dL (2.59 mmol/L) and triglycerides <500 mg/dL (5.65 mmol/L) were randomized into a 12-week, placebo-controlled, parallel-group, double-blind study to assess the efficacy of gemcabene calcium salt hydrate Crystal Form 1 (PSD90=52 μm) 600 mg (300-mg Tablet D×2) QD on LDL-C and other lipoproteins and hsCRP (high-sensitivity C-reactive protein). Safety and tolerability were also evaluated. […]
Within the study population, an analysis was performed in a subpopulation of patients having mixed dyslipidemia (LDL-C ≥100 mg/dL and triglycerides ≥200 and <500 mg/dL). Eighteen patients (10 (Tablet D×2) patients and 8 placebo patients) having a baseline mean LDL-C level of 142 mg/dL, baseline mean triglyceride level of 247 mg/dL and BMI of 34 kg/m^2 were analyzed (FIG. 48). Although not measured in the subpopulation of this Example, some cardiometabolic patients could have elevated sulphatase-2 (Sulf-2) levels, which are believed to cause reduced Syndecan-1 (also known as “remnant receptor”)-mediated clearance of atherogenic remnant lipoproteins. […]

SMILES: CC(C)(CCCCOCCCCC(C)(C)C(=O)[O-])C(=O)[O-].O.[Ca+2] [6-(5-Carboxy-5-methyl-hexyloxy)-2,2-dimethylhexanoic acid calcium (gemcabene calcium salt) hydrate Crystal Form 1]
- muscle or liver related toxicities [1]: No evidence
- serum hsCRP [2]: decreased
